From the supplement of paper PMC6723410

Test system: GUMC-403
Test: viability at highest tested concentration (max response) relative to DMSO (% of DMSO control); higher = less cytotoxic
Conditions: library / dose series: MIPE library, 11-point 1:3 dilution, 48 h
Procedure, shortened: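 Conditionally reprogrammed GUMC-403 papilloma cells from a patient were plated at 700/well in 5 μL F + Y medium in 1536-well plates and left overnight at 37 °C. A pin tool then added 23 nL of library compounds as an 11-point 1:3 series, for 48 h. CellTiter-Glo luminescence was read on a ViewLux and scaled with vehicle wells set to 100% and empty wells to 0%. Each value gives viability at the highest tested concentration relative to vehicle control.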

Nc1nc(Nc2ccc([S+](N)(=O)[O-])cc2)nn1C(=O)c1c(F)cccc1F
viability (top concentration 46.1 µM): 111

CC1=C(C)C(=O)C(C(CCCCCC(=O)O)c2ccccc2)=C(C)C1=O (centres undefined)
viability (top concentration 46.1 µM): 110

CCO[C@@H]1OC(=O)C[C@@H]1NC(=O)[C@@H]1CCCN1C(=O)[C@@H](NC(=O)c1ccc(N)c(Cl)c1)C(C)(C)C
viability (top concentration 46.1 µM): 138

O=C(NCc1ccncc1)C12C[C@H]3C[C@@H](C1)CC(c1ccc(Cl)cc1)(C3)C2
viability (top concentration 46.1 µM): 108

COc1cc2nc(N3CCN(C(=O)C4COc5ccccc5O4)CC3)nc(N)c2cc1OC (centres undefined)
viability (top concentration 46.1 µM): 115

CO/N=C(/C(=O)N[C@@H]1C(=O)N2C(C(=O)O)=C(Cn3ccc(=N)n3CCO)CS[C@H]12)c1csc(N)n1
viability (top concentration 46.1 µM): 109

O=C(O)C1=NC(C(=O)O)CC(/C=C/N2c3cc(O)c(OC4OC(CO)C(O)C(O)C4O)cc3CC2C(=O)O)=C1 (centres undefined)
viability (top concentration 46.1 µM): 135

C/C=C/C/C=C/CCC(=O)[C@H]1O[C@H]1C(N)=O
viability (top concentration 46.1 µM): 93.5

CCOC(=O)[C@H]1O[C@@H]1C(=O)N[C@@H](CC(C)C)C(=O)NCCC(C)C
viability (top concentration 46.1 µM): 109

COC1=CC=C(C=C1O)C/2=C/C(=O)C3=C(O2)C=C(O)C=C3O
viability (top concentration 46.1 µM): 76.3

O=c1[nH]c2ccccc2n1C1CCN(Cc2ccc(-c3nc4cc5nc[nH]c5cc4nc3-c3ccccc3)cc2)CC1
viability (top concentration 46.1 µM): 103

O=C1NC(=O)/C(=C/c2cccc(C(F)(F)F)c2)S1
viability (top concentration 46.1 µM): 106

CN(C/C=C/C#CC(C)(C)C)Cc1cccc2ccccc12
viability (top concentration 46.1 µM): 123

C[C@]12CC[C@H]3[C@@H](CCC4=CC(=O)CC[C@@H]43)[C@@H]1CC[C@@H]2OC(=O)CCc1ccccc1
viability (top concentration 46.1 µM): 118

OC(COC1=C2C(=O)\C=C(/OC2=CC=C1)C([O-])=O)COC3=C4C(=O)\C=C(/OC4=CC=C3)C([O-])=O
viability (top concentration 46.1 µM): 113

C[C@@H]1[C@H]\2[C@H](O)[C@H]3[C@H](N(C)C)\C(=C(C(N)=O)/C(=O)[C@@]3(O)\C(=C2C(=O)C4=C(O)C=CC=C14)O)O
viability (top concentration 46.1 µM): 98.3

CN1[C@@H]2CC(OC(=O)[C@@H](CO)c3ccccc3)C[C@H]1[C@H]1O[C@H]12 (some centres undefined)
viability (top concentration 27.2 µM): 131

CCCCCCCCCCCCCCCC(=O)O[C@@H]1[C@@H](O)[C@@H](O)[C@@H]([C@H](NC(=O)[C@@H]2C[C@@H](CCC)CN2C)[C@H](C)Cl)O[C@@H]1SC.Cl
viability (top concentration 46.1 µM): 116

c1ccc(CNc2nc(N3CCOc4ccccc43)nc3c2CCCC3)cc1
viability (top concentration 46.1 µM): 131

CCC1=C[C@@H]2CN(C1)Cc1c([nH]c3ccccc13)[C@@](C(=O)OC)(c1cc3c(cc1OC)N(C)[C@H]1[C@@](O)(C(=O)OC)[C@H](OC(C)=O)[C@]4(CC)C=CCN5CC[C@]31[C@@H]54)C2
viability (top concentration 46.1 µM): 89.9

Cc1onc(-c2ccccc2)c1C(=O)N[C@@H]1C(=O)N2[C@@H]1SC(C)(C)[C@@H]2C(=O)[O-].[Na+]
viability (top concentration 46.1 µM): 109

O=c1oc2cc(O)ccc2s1
viability (top concentration 46.1 µM): 102

CC/1=C(/C(CC(=O)N1)C2=CC=C(C=C2)C(F)(F)F)C(=O)NC3=C(F)C=C4[NH]N=CC4=C3 (centres undefined)
viability (top concentration 46.1 µM): 108

N[C@H](CSC(c1ccccc1)(c1ccccc1)c1ccccc1)C(=O)O
viability (top concentration 46.1 µM): 103

COc1ccc(-c2ccc3cc(C(=O)O)ccc3c2)cc1C12CC3CC(CC(C3)C1)C2
viability (top concentration 46.1 µM): 112

Cc1cccc(/C=N/Nc2cc(N3CCOCC3)nc(OCCc3ccccn3)n2)c1
viability (top concentration 46.1 µM): 87.4

CCN(CC)Cc1ccc2cc(COC(=O)Nc3ccc(C(=O)NO)cc3)ccc2c1
viability (top concentration 46.1 µM): 78.6

C[C@H](NC(=O)[C@@H](O)c1cc(F)cc(F)c1)C(=O)N[C@@H]1C(=O)N(C)c2ccccc2-c2ccccc21
viability (top concentration 46.1 µM): 99

NC/1=N/C(=O)N(/C=C1)[C@H]2CC[C@@H](CO)O2
viability (top concentration 46.1 µM): 84.4

CCC(CCCC)COC(=O)C(\C#N)=C(\c1ccccc1)c2ccccc2 (centres undefined)
viability (top concentration 46.1 µM): 113

CNC(=O)N1\N=C(\C2=CC=C(N)C=C2)C3=CC4=C(OCO4)C=C3CC1C (centres undefined)
viability (top concentration 46.1 µM): 107

COCCOc1ccc2c(c1)ncn2-c1ccc2cccc(N3CCC(N)CC3)c2n1
viability (top concentration 46.1 µM): 87

COc1ccccc1N1CCN(CCN(C(=O)C2CCCCC2)c2ccccn2)CC1
viability (top concentration 46.1 µM): 95.3

CC(C)[C@@H](N(CCCN)C(=O)C1=CC=C(C)C=C1)C/2=C(\CC3=CC=CC=C3)C(=O)C4=C(O2)C=C(Cl)C=C4
viability (top concentration 46.1 µM): 119

NC(=O)N1CCC(CC(=O)N2CCC([C@H]3c4ncc(Br)cc4CCc4cc(Cl)cc(Br)c43)CC2)CC1
viability (top concentration 46.1 µM): 101

Cc1cc(Nc2cc(N3CCN(C)CC3)nc(Sc3ccc(NC(=O)C4CC4)cc3)n2)[nH]n1
viability (top concentration 46.1 µM): 86.3

CSC1=CC(=CC=C1)NC2=NC3=C(C=N2)/C=C(C(=O)N3C)/C4=C(Cl)C=CC=C4Cl
viability (top concentration 46.1 µM): 107

C=C[C@H]1CN2CCC1C[C@H]2[C@H](O)c1ccnc2ccccc12 (some centres undefined)
viability (top concentration 46.1 µM): 101

CC(=O)SC[C@@H](C)C(=O)N1CCC[C@H]1C(=O)N[C@@H](Cc1ccccc1)C(=O)O
viability (top concentration 46.1 µM): 135

CC1CNc2c(cccc2[S+](=O)([O-])N[C@@H](CCCNC(=N)N)C(=O)N2CC[C@@H](C)C[C@@H]2C(=O)O)C1 (some centres undefined)
viability (top concentration 46.1 µM): 125

CC[C@]12CC[C@H]3[C@@H](CCC/4=C/C(=O)CC[C@H]34)[C@@H]1\C=C/[C@@]2(O)C#C
viability (top concentration 46.1 µM): 130

C[C@@H]1CN(Cc2ccc(F)cc2)[C@@H](C)CN1C(=O)c1cc2c(C(=O)C(=O)N(C)C)cn(C)c2cc1Cl
viability (top concentration 46.1 µM): 101

CC(N[C@H]1C[C@@H]1c1ccccc1)c1ccc2c(c1)OCCO2 (some centres undefined)
viability (top concentration 46.1 µM): 129

CC/C(=C(/CC)c1ccc(O)cc1)c1ccc(O)cc1
viability (top concentration 46.1 µM): 84.8

Cc1cn([C@@H]2O[C@H](CO)[C@@H](O)[C@@H]2F)c(=O)[nH]c1=O
viability (top concentration 46.1 µM): 128

CO[C@@H](C(=O)N1Cc2[nH]nc(NC(=O)c3ccc(N4CCN(C)CC4)cc3)c2C1)c1ccccc1
viability (top concentration 46.1 µM): 63.5

COc1ccc(C(=O)c2c(C)n(CCN3CCOCC3)c3cc(I)ccc23)cc1
viability (top concentration 46.1 µM): 143

COc1ccc([S+](=O)([O-])Nc2cc(-c3c(O)ccc4ccccc34)c(O)c3ccccc23)cc1
viability (top concentration 46.1 µM): 117

CCN(CCO)CCCOc1ccc2c(Nc3cc(CC(=O)Nc4cccc(F)c4)[nH]n3)ncnc2c1
viability (top concentration 46.1 µM): 105

CC1=CC2=C(O1)C(=C3OC(=O)\C=C(C)/C3=C2)C
viability (top concentration 46.1 µM): 111

OC[C@H]1O[C@H]([C@@H](F)[C@@H]1O)N2\C=C/C(=O)NC2=O
viability (top concentration 46.1 µM): 116

CC[C@H](CO)Nc1nc(NCc2ccccc2)c2ncn(C(C)C)c2n1
viability (top concentration 46.1 µM): 42.6

COc1cc(F)c(F)c(Nc2ccc(I)cc2F)c1N[S+](=O)([O-])C1(C[C@H](O)CO)CC1
viability (top concentration 46.1 µM): 101

CC/1=C(/N2[C@H](SC1)[C@H](NC(=O)C(N)C3=CC=CC=C3)C2=O)C(O)=O (some centres undefined)
viability (top concentration 46.1 µM): 106

O[C@@H]1[C@@H](O)[C@H](O[C@@H]([C@H]1O)C(O)=O)OC2=C(O)C(=C3C(=O)\C=C(/OC3=C2)C4=CC=CC=C4)O
viability (top concentration 46.1 µM): 133

CNC(=O)c1cc(COc2nnc(Nc3ccc(Cl)cc3)c3ccoc23)ccn1
viability (top concentration 46.1 µM): 113

CC(C)C[C@@H](N)[C@H](O)C(=O)N[C@H](C(=O)N[C@H](C(=O)N[C@@H](CC(=O)O)C(=O)O)C(C)C)C(C)C
viability (top concentration 46.1 µM): 85.7

OCc1ccccc1O[C@@H]1O[C@H](CO)[C@@H](O)[C@H](O)[C@H]1O
viability (top concentration 46.1 µM): 151

CC[C@]12\C=C/CN3CC[C@]4([C@@H](N(C)C5=CC(=C(C=C45)[C@]6(C[C@H]7C[C@H](CN(C7)CC8=C6[NH]C9=C8C=CC=C9)C(C)(F)F)C(=O)OC)OC)[C@](O)([C@@H]1OC(C)=O)C(=O)OC)[C@H]23
viability (top concentration 46.1 µM): 85

CN1CCN(CCCN2c3ccccc3Sc3ccc(Cl)cc32)CC1.O=C(O)/C=C\C(=O)O.O=C(O)/C=C\C(=O)O
viability (top concentration 46.1 µM): 95.8

Fc1ccc(CNc2ncnc3ccc(F)cc23)cc1
viability (top concentration 46.1 µM): 80.4

C[C@H](NC(=O)Cc1cc(F)cc(F)c1)C(=O)N[C@H](C(=O)OC(C)(C)C)c1ccccc1
viability (top concentration 46.1 µM): 79.4

c1cc(-c2cnn3cc(-c4ccc(OCCN5CCCCC5)cc4)cnc23)ccn1
viability (top concentration 46.1 µM): 48.4

COC1=CC=CC(=C1/C2=N/CC3=C(N=C(NC4=CC(=C(C=C4)C(O)=O)OC)N=C3)C5=CC=C(Cl)C=C25)F
viability (top concentration 46.1 µM): 45.4

COc1cc2c(cc1OC)CN(CCc1ccc(NC(=O)c3cc(OC)c(OC)cc3NC(=O)c3cnc4ccccc4c3)cc1)CC2
viability (top concentration 46.1 µM): 100

Cc1ccccc1C(C(=O)NC1CCCC1)N(C(=O)Cn1cnc2ccccc21)c1cccc(F)c1 (centres undefined)
viability (top concentration 46.1 µM): 101

CC(C(=O)O)c1ccc(-c2ccccc2)c(F)c1 (centres undefined)
viability (top concentration 46.1 µM): 110

CN(C)CCN(C)CCc1ccc(Cl)c(Cl)c1
viability (top concentration 46.1 µM): 124

N[S+]([O-])(=O)C1=CC=C(NC/2=C/C(=O)C3=CC=CC=C3C2=O)C=C1
viability (top concentration 46.1 µM): 142

CC(C)(F)C[C@H](N[C@@H](c1ccc(-c2ccc([S+](C)(=O)[O-])cc2)cc1)C(F)(F)F)C(=O)NC1(C#N)CC1
viability (top concentration 46.1 µM): 110

O=[S+]([O-])(F)Cc1ccccc1
viability (top concentration 46.1 µM): 84.1

NC1=NC=C(C=C1)C2=CC=C3N=CC\4=C(N(C(=O)\C=C4)C5=CC(=CC=C5)C(F)(F)F)C3=C2
viability (top concentration 46.1 µM): 43.7

O=C1Cc2cc(CCN3CCN(c4nsc5ccccc45)CC3)c(Cl)cc2N1
viability (top concentration 46.1 µM): 100

OC(=O)C(CC/1=C/C(=O)NC2=CC=CC=C12)NC(=O)C3=CC=C(Cl)C=C3 (centres undefined)
viability (top concentration 46.1 µM): 132

CC(=O)C\1=C(/C)C2=CN=C(NC3=CC=C(C=N3)N4CCNCC4)N=C2N(C5CCCC5)C1=O
viability (top concentration 46.1 µM): 93

CC(C)[C@@H](N(CCCN)C(=O)C1=CC=C(C)C=C1)C/2=N/C3=CC(=CC=C3C(=O)N2CC4=CC=CC=C4)Cl
viability (top concentration 46.1 µM): 121

O=C1CCC[C@@H]2[C@H]3CCCN4CCC[C@@H](CN12)[C@@H]34
viability (top concentration 46.1 µM): 117

CNC(=O)c1ccc2cc(C3(O)CCn4cncc43)ccc2c1 (centres undefined)
viability (top concentration 46.1 µM): 106

Cc1cn([C@H]2C=C[C@@H](CO)O2)c(=O)[nH]c1=O
viability (top concentration 92.2 µM): 92.2
